Reference: ChEMBL document CHEMBL1201862, “PubChem BioAssay data set” (2004)
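Results reflect a 48-hour exposure of cells in 96-well plates to compound at five concentrations. The concentration for 50% growth inhibition is given as GI50.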 The source made the active and inactive calls. No stated cut-off is given here; in the data, active = GI50 up to about 1.1 µM and inactive = higher.

What was measured:
Experiment in all cases: inhibition of tumour cell growth, NCI panel, 48 h
A498 = tested on: A498
A549 = tested on: A549
BT-549 = tested on: BT-549
DU-145 = tested on: DU-145
HT-29 = tested on: HT-29
Hs-578T = tested on: Hs-578T
MCF7 = tested on: MCF7
Malme-3M = tested on: Malme-3M
NCI-H460 = tested on: NCI-H460
OVCAR-4 = tested on: OVCAR-4
PC-3 = tested on: PC-3
SF-268 = tested on: SF-268
SF-539 = tested on: SF-539
T47D = tested on: T47D
DMS-273 = tested on: DMS-273
HOP-18 = tested on: HOP-18
KM-20L2 = tested on: KM-20L2
SNB-78 = tested on: SNB-78
DLD-1 = tested on: DLD-1
786-0 = tested on: 786-0

Compound	GI50 (A498)	GI50 (A549)	GI50 (BT-549)	GI50 (DU-145)	GI50 (HT-29)	GI50 (Hs-578T)	GI50 (MCF7)	GI50 (Malme-3M)	GI50 (NCI-H460)	GI50 (OVCAR-4)	GI50 (PC-3)	GI50 (SF-268)	GI50 (SF-539)	GI50 (T47D)	GI50 (DMS-273)	GI50 (HOP-18)	GI50 (KM-20L2)	GI50 (SNB-78)	GI50 (DLD-1)	GI50 (786-0)
O/N=C\c1cc(O)c(O)c(/C=N/O)c1	69.3 µM (inactive)	25.2 µM (inactive)	79.1 µM (inactive)	31.6 µM (inactive)	59.3 µM (inactive)	23.9 µM (inactive)	35.5 µM (inactive)	> 100 µM (inactive)	27.9 µM (inactive)	52 µM (inactive)	33.3 µM (inactive)	15.2 µM (inactive)	34.4 µM (inactive)	36.1 µM (inactive)						
Cc1cc(O)nc(NN2C(Cl)C(=O)C2c2cccc(Cl)c2)n1 (configuration not stated)		47.8 µM (inactive)			23.4 µM (inactive)				18.4 µM (inactive)	28.2 µM (inactive)		18.5 µM (inactive)	17.2 µM (inactive)		17.1 µM (inactive)	24 µM (inactive)	32.9 µM (inactive)	22.2 µM (inactive)		
COc1cc(C2S/C(=C/c3ccccc3)C(=O)N2c2ccccc2Cl)cc(OC)c1OC (configuration not stated)	43.4 µM (inactive)	37.1 µM (inactive)	29.3 µM (inactive)		19.1 µM (inactive)	16.5 µM (inactive)	18.6 µM (inactive)	29.8 µM (inactive)		28.2 µM (inactive)	21.8 µM (inactive)	30.3 µM (inactive)		5.26 µM (inactive)						
Nc1nc(Cl)nc2c1ncn2C1CC(O)C(CO)O1 (configuration not stated)	2.95 µM (inactive)	4.26 µM (inactive)			19.3 µM (inactive)		9.75 µM (inactive)	> 100 µM (inactive)	7.28 µM (inactive)	> 100 µM (inactive)		26.4 µM (inactive)	20.3 µM (inactive)		3.89 µM (inactive)	> 100 µM (inactive)	2.42 µM (inactive)	> 100 µM (inactive)	> 100 µM (inactive)	
C/C(CC(=O)Nc1ccccc1)=N\NC(N)=S		> 100 µM (inactive)			> 100 µM (inactive)			> 100 µM (inactive)	> 100 µM (inactive)			> 100 µM (inactive)	> 100 µM (inactive)		> 100 µM (inactive)		> 100 µM (inactive)	> 100 µM (inactive)	> 100 µM (inactive)	> 100 µM (inactive)
CC(C)(C)c1ccc2c(c1)OP1(Oc3c(Cl)cc(Cl)c4cccnc34)(O2)Oc2ccc(C(C)(C)C)cc2O1	14.1 µM (inactive)	6 µM (inactive)			5.2 µM (inactive)		4.58 µM (inactive)	10.8 µM (inactive)	3.8 µM (inactive)	10.3 µM (inactive)		7.16 µM (inactive)	7.78 µM (inactive)		5.04 µM (inactive)	9.98 µM (inactive)	4.92 µM (inactive)	23 µM (inactive)	5.2 µM (inactive)	
COc1ccc(NC(C)=O)cc1N1C(=O)/C(=C\c2ccccc2)SC1c1cc(OC)c(OC)c(OC)c1 (configuration not stated)	60 µM (inactive)	30.1 µM (inactive)	47.4 µM (inactive)	20.4 µM (inactive)	32.4 µM (inactive)		28.5 µM (inactive)	24.3 µM (inactive)	15.5 µM (inactive)		29 µM (inactive)	17.7 µM (inactive)	22.6 µM (inactive)	40.1 µM (inactive)						19.2 µM (inactive)
COC(=O)C(Cc1ccc2c(c1)OCO2)(NC(=O)c1ccccc1)P(=O)(OC)OC (configuration not stated)	> 100 µM (inactive)	> 100 µM (inactive)			> 100 µM (inactive)				> 100 µM (inactive)	> 100 µM (inactive)		> 100 µM (inactive)	> 100 µM (inactive)		> 100 µM (inactive)		> 100 µM (inactive)	> 100 µM (inactive)	> 100 µM (inactive)	
COc1ccc2nc(-n3c(/C=C/c4ccccc4O)nc4ccccc4c3=O)sc2c1	29.9 µM (inactive)	39.4 µM (inactive)	27.5 µM (inactive)	> 100 µM (inactive)	50.2 µM (inactive)	> 100 µM (inactive)	47.5 µM (inactive)	71.6 µM (inactive)	> 100 µM (inactive)	> 100 µM (inactive)	53.5 µM (inactive)	> 100 µM (inactive)								35.9 µM (inactive)
C=C1C(=O)O[C@@H]2[C@H](O)[C@@H](C)[C@@H]3C=CC(=O)[C@@]3(C)[C@@H](OC(=O)/C(C)=C/C)[C@H]12	1.32 µM (inactive)	1.98 µM (inactive)			0.745 µM (active)		0.518 µM (active)	0.914 µM (active)	0.412 µM (active)	1.35 µM (inactive)		0.437 µM (active)	0.468 µM (active)		0.451 µM (active)	1.9 µM (inactive)	1.75 µM (inactive)	0.871 µM (active)	0.728 µM (active)	
COC(=O)Cc1c(/C=C/C(C)(C)n2cnc(CCN3C(=O)CCC3=O)c2)[nH]c2ccccc12	> 100 µM (inactive)	94.6 µM (inactive)	> 100 µM (inactive)	> 100 µM (inactive)	35.4 µM (inactive)	43.7 µM (inactive)	47.2 µM (inactive)	37 µM (inactive)	> 100 µM (inactive)	> 100 µM (inactive)	> 100 µM (inactive)	59.6 µM (inactive)	> 100 µM (inactive)	22.3 µM (inactive)						> 100 µM (inactive)
O=C1CCCN1CCC/N=c1/cc2n(-c3ccc(Cl)cc3)c3ccccc3nc-2cc1Nc1ccc(Cl)cc1	19.5 µM (inactive)	15.7 µM (inactive)			2.13 µM (inactive)		7.24 µM (inactive)	16.5 µM (inactive)	7.06 µM (inactive)	5.57 µM (inactive)		38.5 µM (inactive)	12.7 µM (inactive)		15.6 µM (inactive)	24.8 µM (inactive)	2.42 µM (inactive)	18.9 µM (inactive)	4.81 µM (inactive)	
CC(=O)C(CN1CCCCC1)C(c1ccccc1)c1c(O)c2ccccc2oc1=O (configuration not stated)	> 100 µM (inactive)	> 100 µM (inactive)	> 100 µM (inactive)	> 100 µM (inactive)	> 100 µM (inactive)	> 100 µM (inactive)	> 100 µM (inactive)	> 100 µM (inactive)	> 100 µM (inactive)	> 100 µM (inactive)	> 100 µM (inactive)	> 100 µM (inactive)	> 100 µM (inactive)	> 100 µM (inactive)						> 100 µM (inactive)
CCCCCCCCCCCCSC(=S)c1c(C)[nH]n(CCCCCCCCCCCC)c1=O	> 100 µM (inactive)	40.5 µM (inactive)			74.1 µM (inactive)			34.6 µM (inactive)	50.5 µM (inactive)	> 100 µM (inactive)		48.9 µM (inactive)	> 100 µM (inactive)			65 µM (inactive)	73.1 µM (inactive)	> 100 µM (inactive)	> 100 µM (inactive)	
O=c1ccc2ccc(CBr)cc2o1	16 µM (inactive)	15.5 µM (inactive)	3 µM (inactive)	17.1 µM (inactive)	2.48 µM (inactive)	9.84 µM (inactive)	1.9 µM (inactive)		10.8 µM (inactive)		> 100 µM (inactive)		3.97 µM (inactive)	2.38 µM (inactive)						
O=Cc1ccccc1CCn1c(=O)c2cc3c(=O)n(CCc4ccccc4C=O)c(=O)c3cc2c1=O	> 100 µM (inactive)	> 100 µM (inactive)			> 100 µM (inactive)			> 100 µM (inactive)	> 100 µM (inactive)	> 100 µM (inactive)		> 100 µM (inactive)	> 100 µM (inactive)		> 100 µM (inactive)			> 100 µM (inactive)	> 100 µM (inactive)	
C=C1CC(Cn2cc(Br)c(=O)[nH]c2=O)(c2ccc(Br)cc2)OC1=O (configuration not stated)	1.22 µM (inactive)	14.8 µM (inactive)	2.37 µM (inactive)	5.65 µM (inactive)	2.3 µM (inactive)	5.98 µM (inactive)	2.61 µM (inactive)	1.87 µM (inactive)	14.1 µM (inactive)	1.85 µM (inactive)	3.56 µM (inactive)	13.6 µM (inactive)	6.44 µM (inactive)	2.03 µM (inactive)						1.63 µM (inactive)
O=c1c(C(c2ccc(OCc3ccccc3)cc2)c2c(O)oc3ccccc3c2=O)c(O)oc2ccccc12	83.2 µM (inactive)	40.9 µM (inactive)	24.9 µM (inactive)	67.6 µM (inactive)	33 µM (inactive)	34.3 µM (inactive)	48.4 µM (inactive)	28.6 µM (inactive)	35 µM (inactive)	46.1 µM (inactive)	39.7 µM (inactive)	29.4 µM (inactive)	39.6 µM (inactive)	81.1 µM (inactive)						38.2 µM (inactive)
Cc1ccc(S(=O)(=O)OCCN(CCOS(=O)(=O)c2ccc(C)cc2)c2ccc(C=O)cc2)cc1	24.9 µM (inactive)	32.5 µM (inactive)	28.8 µM (inactive)	27.1 µM (inactive)	32.1 µM (inactive)	36.2 µM (inactive)	30.7 µM (inactive)	25.4 µM (inactive)	21.9 µM (inactive)	21.2 µM (inactive)	32.7 µM (inactive)	46.6 µM (inactive)	24.8 µM (inactive)	40.7 µM (inactive)						
